The subject of test [1] is HCT116 p53+/+. Kind of test: MTT cytotoxicity assay (Example 2). Format: cell-based. The following applies: MTT, 72 h, read-out: IC50 Hct116 p53+/+. The text has this: (§1) Human breast cancer cell lines MDA-MB-435 and SkBr-3 were purchased from the American Type Culture Collection (Manassas, Va.). The HCT116 P53+/+ and HCT116 P53−/− cell lines were kindly provided by Dr. Bert Vogelstein (Johns Hopkins Medical Institutions, Baltimore, Md.). The HEY human ovarian carcinoma cell line was kindly provided by Dr. Louis Dubeau (University of Southern California Norris Cancer Center). Cells were maintained as monolayer cultures in media supplemented with 10% fetal bovine serum (Gemini-Bioproducts, Woodland, Calif.) and 2 mmo/lL-glutamine at 37° C. in a humidified atmosphere of 5% C02. To remove the adherent cells from the flask for passaging and counting, cells were washed with PBS without calcium or magnesium, incubated with a small volume of 0.25% trypsin-EDTA solution (Sigma-Aldrich, St. Louis, Mo.) for 5-10 min, and washed with culture medium and centrifuged. All experiments were performed using cells in exponential growth stage. Cells were routinely checked for mycoplasma contamination using a PCR-based assay (Stratagene, Cambridge, UK).
(§2) Stock solutions (10 mM) of all compounds were prepared in DMSO and stored at −20° C. Further dilutions were made fresh in cell-culture media just prior to cell treatment.
(§3) Cytotoxicity was assessed by a 3-(4,5-dimethylthiazol-2-yl)-2,5-diphenyltetrazolium bromide (MTT) assay as previously described.^23 Cells were seeded in 96-well plates and allowed to attach overnight. Cells were subsequently treated with continuous exposure to the corresponding drug for 72 h. An MTT solution (at a final concentration of 0.5 mg/ml) was added to each well, and cells were incubated for 4 h at 37° C. After removal of the medium, DMSO was added and the absorbance was read at 570 nm. All assays were performed in triplicate. The IC50 was determined for each drug from a plot of log (drug concentration) versus percentage of cells killed.
In general terms: Tetrazolium dyes change colour on reduction, which living cells bring about.

Test [2] concerns HCT116 p53−/−. Put plainly: MTT cytotoxicity assay (Example 2). Format: cell-based.
Excerpt: as §1, §2, §3

Test [3] relates to MDA-MB-435. Kind of test: MTT cytotoxicity assay (Example 2). Format: cell-based. As to conditions: Homo sapiens, MDA-MB-435, 72 h.
Excerpt: as §1, §2, §3

In test [4] the test system is HEY. Put plainly: MTT cytotoxicity assay (Example 2). As to conditions: Homo sapiens, 72 h. The class given is cell-based, human.
Excerpt: as §1, §2, §3

In test [5] the test system is SkBr-3. Kind of test: MTT cytotoxicity assay (Example 2). The following applies: Homo sapiens, SK-BR-3, 72 h. The class given is cell-based, human.
Excerpt: as §1, §2, §3

Test [6] deals with HCT116 p53+/+. Kind of test: MTT cytotoxicity assay (Example 1). Format: cell-based. The following applies: Homo sapiens, HCT-116, 72 h, MTT, 72 h. From the text:
(§4) Human breast cancer cells MDA-MB-435 were purchased from the American Type Culture Collection (Manassas, Va.). The HCT116 p53+/+ and HCT116 p53−/− cells were kindly provided by Dr. Bert Vogelstein (Johns Hopkins Medical Institutions, Baltimore, Md.). The human ovarian carcinoma cell line (HEY) which is naturally resistant to cisplatin, was kindly provided by Dr. Louis Dubeau, University of Southern California (USC) Norris Cancer Center, and NIH3T3 normal mouse fibroblast cells were kindly provided by Dr. Michael Press from USC. HEY and NIH3T3 cells were maintained as monolayer cultures in RPMI, HCT 116 cells in McCoy1s5A media and MDA-MB 435 in DMEM. Media were purchased from (Mediatech, Virginia) and supplemented with 10% fetal bovine serum (Gemini-Bioproducts, Woodland, Calif.), 2 mM L-glutamine and 5% Penicillin/streptomycin from Bio whittaker were purchased from VWR. Cells were incubated at 37° C. in a humidified atmosphere of 5% CO2. To remove the adherent cells from the flask for passaging and counting, cells were washed with PBS without calcium or magnesium, incubated with a small volume of 0.25% trypsin-EDTA solution (Sigma-Aldrich, St. Louis, Mo.) for 5-10 min, and washed with culture medium and centrifuged. All experiments were performed using cells at exponential growth stage. Cells were routinely checked for mycoplasma contamination using a PCR-based assay (Stratagene, Tex., USA).
(§5) Stock solutions (10 mM) of all compounds were prepared in DMSO and stored at −20° C. Further dilutions were made fresh in PBS or cell-culture media right before cell treatment.
(§6) Cytotoxicity was assessed by a 3-(4,s-dimethylthiazol-2-yl)-2,5-diphenyltetrazolium bromide (MTT) assay as previously described.^24 Briefly, cells were seeded in 96-well microtiter plates and allowed to attach overnight. Cells were subsequently treated with continuous exposure to the corresponding drug for 72 h. A MTT solution (at a final concentration of 0.5 mglml) was added to each well, and cells were incubated for 4 h at 37° C. After removal of the medium, DMSO was added and the absorbance was read at 570 nm. All assays were done in triplicate. The IC50 was then determined for each drug from a plot of log (drug concentration) versus percentage of cells killed.

For test [7], the system named is HCT116 p53−/−. Kind of test: MTT cytotoxicity assay (Example 1). Format: cell-based. The following applies: MTT, 72 h.
Excerpt: as §4, §5, §6

Test [8] concerns HEY. Kind of test: MTT cytotoxicity assay (Example 1). The following applies: 72 h. Format: cell-based, human.
Excerpt: as §4, §5, §6

The test system of test [9] is MDA-MB-435. Put plainly: MTT cytotoxicity assay (Example 1). Format: cell-based, human. As to conditions: Homo sapiens, MDA-MB-435, 72 h.
Excerpt: as §4, §5, §6

Test [10] relates to NIH3T3. Put plainly: MTT cytotoxicity assay (Example 1). Format: cell-based, mouse.
Excerpt: as §4, §5, §6

For 12 compounds, IC50 results are on record in US8445677B2, “Substituted pyrimidyl guanidine derivatives having anticancer activity” (University of Southern California, priority 2008, dated 2013).

A value given as a limit tells only on which side of the number the result lay.

On to `Oc1ccc(CN2CCCCC2)c2cccnc12` [20-SMD58-18], for which the IC50 came to 6.8 ± 1.3 µM in [1] (Homo sapiens, HCT-116, 72 h); 6.5 ± 0.8 µM in test [2] (Homo sapiens, HCT-116, 72 h); 8.9 µM in test [3]; 5 ± 1.6 µM in test [4]; 8.6 ± 1.4 µM in test [5].
The corresponding values for `CN1CCN(Cc2ccc(O)c3ncccc23)CC1` [14-SMD58-7] are 0.7 ± 0.4 µM, 1.7 ± 0.2 µM, 3.9 ± 0.1 µM, 0.4 µM and 3.2 ± 0.1 µM.
Taken in the same sequence, the figures for `CCOc1ccc(NCc2ccc(O)c3ncccc23)cc1` [16-SMD58-11] were 2.3 ± 0.1 µM, 1.2 ± 0.2 µM, 4.9 ± 1.1 µM, 1.7 ± 0.1 µM and 3 ± 1.3 µM.
Take `CCOC(=O)C1CCCN(Cc2ccc(O)c3ncccc23)C1` (stereo not drawn) [12-SMD58]: the IC50 in [1] (Homo sapiens, HCT-116, 72 h) is 1.6 ± 0.4 µM; in test [2] (Homo sapiens, HCT-116, 72 h), 2 ± 0.1 µM; in test [3] it was 4.2 ± 1.2 µM; in [4] it was 0.9 µM; in [5] it was 2.2 ± 0.9 µM.
Taken in the same sequence, the figures for `CCN1CCN(Cc2ccc(O)c3ncccc23)CC1` [22-SMD58-20] were 2.1 µM, 2.1 ± 1.2 µM, 7.2 ± 0.4 µM, 1.4 ± 0.2 µM and 4.1 ± 0.1 µM.
As for `Cc1[nH]c(Nc2nc3ccccc3s2)nc(=O)c1Cc1ccccc1` [7-SMD18-8], the IC50 was 10 µM in test [1] (Homo sapiens, HCT-116, 72 h); more than 10 µM in [1]; 7.2 µM in test [2] (72 h); more than 10 µM in [2] (Homo sapiens, HCT-116, 72 h); more than 10 µM in test [3]; more than 10 µM in [5].
On to `Cc1cccc(Nc2nc3nonc3nc2NN=Cc2ccc(-c3cccc(C(=O)O)c3)o2)c1` [Compound 20], for which the IC50 was more than 10 µM in [6]; more than 10 µM in [7] (Homo sapiens, HCT-116, 72 h); 8 µM in test [8] (Homo sapiens); more than 10 µM in test [9]; 10 µM in test [10] (Mus musculus, NIH3T3, 72 h).
With `O=C(O)c1ccccc1Nc1nc2nonc2nc1Nc1ccccc1C(=O)O` [Compound 22], the IC50 was more than 10 µM in [6]; more than 10 µM in [7] (Homo sapiens, HCT-116, 72 h); more than 10 µM in test [8] (Homo sapiens); more than 10 µM in [9]; more than 10 µM in test [10] (Mus musculus, NIH3T3, 72 h).
For the compound `CCCn1c(=O)c(C(=O)NNC(=O)COc2ccccc2)c(O)c2ccccc21` [Compound 25], the IC50 in test [6] was 10 µM; in test [7] (Homo sapiens, HCT-116, 72 h), more than 10 µM; in test [8] (Homo sapiens), more than 10 µM; in test [9], more than 20 µM; in test [10] (Mus musculus, NIH3T3, 72 h), more than 10 µM.
Regarding `O=C(O)c1cc(-c2ccc(/C=N/Nc3nc4nonc4nc3Nc3ccccc3F)o2)ccc1Cl` [Compound 14], the IC50 in test [6] was more than 10 µM; in test [7] (Homo sapiens, HCT-116, 72 h), 7 µM; in test [8] (Homo sapiens) it was 10 µM; in test [9] it was more than 10 µM; in test [10] (Mus musculus, NIH3T3, 72 h), more than 10 µM.
Take `COC(=O)/C=C1/N=C(Nc2nc3cc(C)ccc3o2)NC1=O` [Compound 35]: the IC50 in test [6] stood at 5 µM; in [7] (Homo sapiens, HCT-116, 72 h), 4.2 µM; in [7] it was 3.4 µM; in [8], 2 µM; in test [8] (Homo sapiens), 3.5 µM; in test [9], 6 µM. For the same compound, the IC50 is 6 µM in [10] (72 h) and 11 µM in test [10] (Mus musculus, NIH3T3, 72 h).
As to `CC(C)c1cc(=O)[nH]c(Nc2nc3ccccc3s2)n1` [8-SMD18-14], the IC50 was 4.5 ± 1.5 µM in [1] (Homo sapiens, HCT-116, 72 h); 3.6 ± 1.8 µM in [2] (Homo sapiens, HCT-116, 72 h); more than 10 µM in test [3]; more than 10 µM in test [5].
